pKd: −log10 of the molar value. Read-outs that look alike come from different tables or passages of the source. *1 amine or outer side, *2 acyl side, *3 side chain or, on linkers, in order; H or OH if unused. Where a SMILES comes first, the peptide text is derived from it. Bridges are numbered along the chain shown (N, C = ends). [ ]: non-standard residue; d: D form. The star is where a group is joined. hPhe(3,5-F2-4-CF3) = N[C@@H](CCc1cc(F)c(C(F)(F)F)c(F)c1)C(=O)O; hPhe(3-Cl-4-CF3) = N[C@@H](CCc1ccc(C(F)(F)F)c(Cl)c1)C(=O)O; NPrPhe(4-CF3) = CCCN[C@@H](Cc1ccc(C(F)(F)F)cc1)C(=O)O; X13 = O=C([C@@H](N[*:1])C1CC(F)(F)C1)[*:2]; NMeGly(cPent) = CN[C@H](C(=O)O)C1CCCC1; Hyp = O=C(O)[C@@H]1C[C@@H](O)CN1; NMeD = CN[C@@H](CC(=O)O)C(=O)O; NMeL = CN[C@@H](CC(C)C)C(=O)O; Morpholide = C1CN(*)CCO1; NMeA = CN[C@@H](C)C(=O)O; Ac5c = NC1(C(=O)O)CCCC1; Aze = O=C(O)[C@@H]1CCN1; Ac4c = NC1(C(=O)O)CCC1; Sar = CNCC(=O)O
Key:
[1] = molecular target: GDP-bound KRAS wild-type protein (Homo sapiens, UniProt P01116); assay: Binding to KRAS by surface plasmon resonance (SPR), Single Cycle Kinetics; conditions: GDP-bound KRAS wild-type protein, read-out: KRAS KD
[2] = molecular target: GDP-bound NRAS wild-type protein (Homo sapiens, UniProt P01111); assay: Binding to NRAS by surface plasmon resonance (SPR), Single Cycle Kinetics; conditions: for NRAS/KRAS (ratio of KD value for NRAS to KD value for KRAS) / NRAS/KRAS (ratio of KD value with respect to NRAS to KD value with respect to KRAS): SPR, GDP-bound NRAS wild-type protein vs GDP-bound KRAS wild-type protein
[3] = molecular target: GDP-bound HRAS wild-type protein (Homo sapiens, UniProt P01112); assay: Binding to HRAS by surface plasmon resonance (SPR), Single Cycle Kinetics; conditions: for HRAS/KRAS (ratio of KD value for HRAS to KD value for KRAS) / HRAS/KRAS (ratio of KD value with respect to HRAS to KD value with respect to KRAS): SPR, GDP-bound HRAS wild-type protein vs GDP-bound KRAS wild-type protein
[4] = SPR Single Cycle Kinetics, 1:1 binding model

GDP-bound NRAS wild-type protein, sequence (P01111 whole entry): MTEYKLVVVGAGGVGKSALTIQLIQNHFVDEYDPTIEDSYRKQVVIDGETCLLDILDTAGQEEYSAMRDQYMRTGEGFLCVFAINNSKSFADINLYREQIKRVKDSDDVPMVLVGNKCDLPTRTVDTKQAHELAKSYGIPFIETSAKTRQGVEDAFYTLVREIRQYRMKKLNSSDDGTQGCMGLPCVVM
GDP-bound HRAS wild-type protein, sequence (P01112 whole entry): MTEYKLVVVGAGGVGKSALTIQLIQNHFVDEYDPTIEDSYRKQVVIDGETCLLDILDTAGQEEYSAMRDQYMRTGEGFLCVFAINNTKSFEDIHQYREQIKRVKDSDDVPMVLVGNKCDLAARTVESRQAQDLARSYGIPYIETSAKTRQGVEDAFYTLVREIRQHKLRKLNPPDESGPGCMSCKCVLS
GDP-bound KRAS wild-type protein, sequence (P01116 whole entry): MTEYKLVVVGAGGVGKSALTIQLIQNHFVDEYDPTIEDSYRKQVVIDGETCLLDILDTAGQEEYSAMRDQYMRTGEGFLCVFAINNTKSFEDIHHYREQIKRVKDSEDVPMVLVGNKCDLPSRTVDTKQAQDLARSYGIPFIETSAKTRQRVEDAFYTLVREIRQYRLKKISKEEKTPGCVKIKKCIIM

Row | Compound | pKd [1, 4] | NRAS/KRAS (ratio of KD value for NRAS to KD value for KRAS) [2] | HRAS/KRAS (ratio of KD value for HRAS to KD value for KRAS) [3] | NRAS/KRAS (ratio of KD value with respect to GDP-bound NRAS wild-type protein to KD value with respect to KRAS) ([2]; SPR KD ratio NRAS/KRAS, class symbols) | HRAS/KRAS (ratio of KD value with respect to GDP-bound HRAS wild-type protein to KD value with respect to KRAS) ([3]; SPR KD ratio HRAS/KRAS, class symbols) | pKd ([1]; SPR, Single Cycle Kinetics) | NRAS/KRAS (ratio of KD value with respect to NRAS to KD value with respect to KRAS) [2] | HRAS/KRAS (ratio of KD value with respect to HRAS to KD value with respect to KRAS) [3]
1 | CCCN1C(=O)[C@@H]2CCN2C(=O)[C@H](C)N(C)C(=O)[C@H]([C@@H](C)CC)NC(=O)[C@H](CC(C)C)N(C)C(=O)C[C@@H](C(=O)N2CCOCC2)N(C)C(=O)[C@H](C2CCCC2)N(C)C(=O)C2(CCC2)NC(=O)[C@@H]2C[C@@H](OCC)CN2C(=O)[C@H](CCc2ccc(C(F)(F)F)c(Cl)c2)NC(=O)CN(C)C(=O)[C@@H]1Cc1ccc(C(F)(F)F)cc1 [PP0406] ([NMeL]I[NMeA][Aze][NPrPhe(4-CF3)][Sar][hPhe(3-Cl-4-CF3)][Hyp](Et)[Ac4c][NMeGly(cPent)][NMeD]-Morpholide; lactam N-11) | 10.38 | C (A compound having a KD ratio of 0.1 or more and less than 3 is denoted as C) | B (a compound having 3 or more and less than 10 is denoted as B) |  |  |  |  | 
2 | CCCN1C(=O)[C@@H]2CCN2C(=O)[C@H](C)N(C)C(=O)[C@H]([C@@H](C)CC)NC(=O)[C@H](CC(C)C)N(C)C(=O)C[C@@H](C(=O)N(C)C)NC(=O)[C@H](C2CCCC2)N(C)C(=O)C2(CCCC2)NC(=O)[C@@H]2C[C@@H](OCC)CN2C(=O)[C@H](CCc2ccc(C(F)(F)F)c(Cl)c2)NC(=O)CN(C)C(=O)[C@@H]1Cc1ccc(C(F)(F)F)cc1 [PP0383] ([NMeL]I[NMeA][Aze][NPrPhe(4-CF3)][Sar][hPhe(3-Cl-4-CF3)][Hyp](Et)[Ac5c][NMeGly(cPent)]D-NMe2; lactam N-11) | 9.62 | C (A compound having a KD ratio of 0.1 or more and less than 3 is denoted as C) | B (a compound having 3 or more and less than 10 is denoted as B) |  |  |  |  | 
3 | CCC[C@H]1C(=O)N[C@@H]([C@@H](C)CC)C(=O)N(C)CC(=O)N(C)[C@H]2C/C=C\CCN(C2=O)[C@@H](Cc2ccc(C)cc2)C(=O)N(C)CC(=O)N[C@@H](CCc2ccc(Cl)c(C(F)(F)F)c2)C(=O)N2C[C@H](OCC)C[C@H]2C(=O)NC2(CC(C)(C)C2)C(=O)N(C)[C@@H](C2CCCC2)C(=O)N(C)[C@H](C(=O)N(C)C)CC(=O)N1C [PP2786] | 9.85 |  |  | A (a compound having 10 or more and less than 20 is denoted as A) | A (a compound having 10 or more and less than 20 is denoted as A) |  |  | 
4 | CCO[C@@H]1C[C@H]2C(=O)NC3(CCC3)C(=O)N(C)[C@@H](C3CCCC3)C(=O)N(C)[C@H](C(=O)N3CCOCC3)CC(=O)N(C)[C@@H](Cc3cccc(Cl)c3)C(=O)N[C@@H]([C@@H](C)CC)C(=O)N(C)CC(=O)N(C)[C@H]3CCCCCN(C3=O)[C@@H](Cc3ccc(C(F)(F)F)cc3)C(=O)N(C)CC(=O)N[C@@H](CCc3cc(F)c(C(F)(F)F)c(F)c3)C(=O)N2C1 [PP0857] |  | B (a compound having 3 or more and less than 10 is denoted as B) | B (a compound having 3 or more and less than 10 is denoted as B) |  |  | 8.85 |  | 
5 | CC[C@H](C)[C@@H]1NC(=O)[C@H](CC(C)C)N(C)C(=O)C[C@@H](C(=O)N2CCOCC2)N(C)C(=O)[C@H](CC(F)(F)F)N(C)C(=O)C2(CCCC2)NC(=O)[C@@H]2CCCN2C(=O)[C@H](CCc2cc(F)c(C(F)(F)F)c(F)c2)NC(=O)CN(C)C(=O)[C@H](Cc2ccc(C(F)(F)F)cc2)N2CCCCC[C@@H](C2=O)N(C)C(=O)CN(C)C1=O [PP0506] | 7.60 |  |  |  |  |  | B (a compound having 3 or more and less than 10 is denoted as B) | B (a compound having 3 or more and less than 10 is denoted as B)
6 | CC[C@H](C)[C@@H]1NC(=O)[C@@H]2CCCCCCc3ccc(cc3)C[C@@H](C(=O)N(C)CC(=O)N[C@@H](CCc3ccc(C(F)(F)F)c(OC)c3)C(=O)N3C[C@H](OC4CCC4)C[C@H]3C(=O)NC3(CC(C)(C)C3)C(=O)N(C)[C@@H](C3CCCC3)C(=O)N(C)[C@H](C(=O)N(C)C)CC(=O)N2C)N2CC/C=C\C[C@@H](C2=O)N(C)C(=O)CN(C)C1=O [PP3068] |  | A (a compound having 10 or more and less than 20 is denoted as A) | B (a compound having 3 or more and less than 10 is denoted as B) |  |  | 10.30 |  | 
7 | CCO[C@@H]1C[C@H]2C(=O)NC3(CCC3)C(=O)N(C)[C@@H](C3CCCC3)C(=O)N(C)[C@H](C(=O)N3CCOCC3)CC(=O)N(C)[C@@H](C)C(=O)N[C@@H]([C@@H](C)CC)C(=O)N(C)CC(=O)N(C)[C@H]3CCCCN(C3=O)[C@@H](Cc3ccc(C(F)(F)F)cc3)C(=O)N(C)CC(=O)N[C@@H](CCc3cc(F)c(C(F)(F)F)c(F)c3)C(=O)N2C1 [PP0585] | 10.66 |  |  |  |  |  | B (a compound having 3 or more and less than 10 is denoted as B) | B (a compound having 3 or more and less than 10 is denoted as B)
8 | CC[C@H](C)[C@@H]1NC(=O)[C@H](C2CC2)N(C)C(=O)C[C@@H](C(=O)N(C)CC)N(C)C(=O)[C@H](C2CCCC2)N(C)C(=O)C2(CCC2)NC(=O)[C@@H]2C[C@H](C)CN2C(=O)[C@H](CCc2ccc(C(F)(F)F)c(OC)c2)NC(=O)CN(C)C(=O)[C@H](Cc2ccc(C(F)(F)F)cc2)N2CC/C=C\C[C@@H](C2=O)N(C)C(=O)CN(C)C1=O [PP2069] |  | AA (a compound having 20 or more is denoted as AA) | A (a compound having 10 or more and less than 20 is denoted as A) |  |  | 10.09 |  | 
9 | CCO[C@@H]1C[C@H]2C(=O)NC3(CCC3)C(=O)N(C)[C@@H](C3CCCC3)C(=O)N(C)[C@H](C(=O)N(C)C)CC(=O)N(C)[C@@H](Cc3cccnc3)C(=O)N[C@@H]([C@@H](C)CC)C(=O)N(C)CC(=O)N(C)[C@H]3CCCCN(C3=O)[C@@H](Cc3ccc(C(F)(F)F)cc3)C(=O)N(C)CC(=O)N[C@@H](CCc3cc(F)c(C(F)(F)F)c(F)c3)C(=O)N2C1 [PP0703] | 10.89 |  |  |  |  |  | C (A compound having a KD ratio of 0.1 or more and less than 3 is denoted as C) | B (a compound having 3 or more and less than 10 is denoted as B)
10 | CCO[C@@H]1C[C@H]2C(=O)NC3(CCCC3)C(=O)N(C)[C@@H](C3CCCC3)C(=O)N(C)[C@H](C(=O)N3CCOCC3)CC(=O)N(C)[C@@H](CC)C(=O)N[C@@H]([C@@H](C)CC)C(=O)N(C)CC(=O)N(C)[C@H]3C[C@@H](C)CCN(C3=O)[C@@H](Cc3ccc(C(F)(F)F)cc3)C(=O)N(C)CC(=O)N[C@@H](CCc3cc(F)c(C(F)(F)F)c(F)c3)C(=O)N2C1 [PP1029] |  | C (A compound having a KD ratio of 0.1 or more and less than 3 is denoted as C) | B (a compound having 3 or more and less than 10 is denoted as B) |  |  | 10.11 |  | 
11 | CCO[C@@H]1C[C@H]2C(=O)NC3(CCC3)C(=O)N(C)[C@@H](C3CCCC3)C(=O)N(C)[C@H](C(=O)N3CCOCC3)CC(=O)N(C)[C@@H](CCOC)C(=O)N[C@@H]([C@@H](C)CC)C(=O)N(C)CC(=O)N(C)[C@H]3CCCCN(C3=O)[C@@H](Cc3ccc(C(F)(F)F)cc3)C(=O)N(C)CC(=O)N[C@@H](CCc3cc(F)c(C(F)(F)F)c(F)c3)C(=O)N2C1 [PP0720] | 10.44 |  |  |  |  |  | C (A compound having a KD ratio of 0.1 or more and less than 3 is denoted as C) | B (a compound having 3 or more and less than 10 is denoted as B)
12 | CCO[C@@H]1C[C@H]2C(=O)NC3(CCC3)C(=O)N(C)[C@@H](C3CCCC3)C(=O)N(C)[C@H](C(=O)N3CCOCC3)CC(=O)N(C)[C@@H](C)C(=O)N[C@@H]([C@@H](C)CC)C(=O)N(C)CC(=O)N(C)[C@H]3CCCCCN(C3=O)[C@@H](Cc3ccc(C(F)(F)F)cc3)C(=O)N(C)CC(=O)N[C@@H](CCc3cc(F)c(C(F)(F)F)c(F)c3)C(=O)N2C1 [PP0474] | 9.20 |  |  |  |  |  | B (a compound having 3 or more and less than 10 is denoted as B) | B (a compound having 3 or more and less than 10 is denoted as B)
13 | CCCN1C(=O)CN(C)C(=O)[C@@H]2CCN2C(=O)[C@H](C2CC(F)(F)C2)NC(=O)[C@H](CC(C)C)N(C)C(=O)C[C@@H](C(=O)N2CCOCC2)N(C)C(=O)[C@H](C2CCCC2)N(C)C(=O)C2(CCCC2)NC(=O)[C@@H]2CCCN2C(=O)[C@H](CCc2cc(F)c(C(F)(F)F)c(F)c2)NC(=O)CN(C)C(=O)[C@@H]1Cc1ccc(C(F)(F)F)cc1 [PP0786] ([NMeL][X13][Aze][Sar][NPrPhe(4-CF3)][Sar][hPhe(3,5-F2-4-CF3)]P[Ac5c][NMeGly(cPent)][NMeD]-Morpholide; lactam N-11) | 9.22 |  |  |  |  |  | B (a compound having 3 or more and less than 10 is denoted as B) | B (a compound having 3 or more and less than 10 is denoted as B)
14 | CCCN1C(=O)CN(C)C(=O)CN(C)C(=O)[C@H]([C@@H](C)CC)NC(=O)[C@H](CC(C)C)N(C)C(=O)C[C@@H](C(=O)N(C)C)N(C)C(=O)[C@H](C2CCCC2)N(C)C(=O)C2(CCC2)NC(=O)[C@@H]2C[C@@H](OCC)CN2C(=O)[C@H](CCc2ccc(C(F)(F)F)c(Cl)c2)NC(=O)CN(C)C(=O)[C@@H]1Cc1ccc(C(F)(F)F)cc1 [PP0416] ([NMeL]I[Sar][Sar][NPrPhe(4-CF3)][Sar][hPhe(3-Cl-4-CF3)][Hyp](Et)[Ac4c][NMeGly(cPent)][NMeD]-NMe2; lactam N-11) | 10.57 |  |  |  |  |  | B (a compound having 3 or more and less than 10 is denoted as B) | C (A compound having a KD ratio of 0.1 or more and less than 3 is denoted as C)

— patent US20240158446A1, “CYCLIC COMPOUND HAVING SELECTIVE INHIBITORY ACTION ON KRAS OVER HRAS AND NRAS” (CHUGAI SEIYAKU KABUSHIKI KAISHA, priority 2021, published 2024)
